Where “and” joins values, the source holds several entries; their conditions need not be identical. Equal entries are not always repeated. ± gives the expanded uncertainty stated by the source.
Assay: activity coefficient (dimensionless); of the first substance listed, at infinite dilution; xn = mol fraction of the nth substance listed
Details: 101 kPa, Liquid, Chromatography, x1 = 0

activity coefficient (288.15 K) | activity coefficient (298.15 K) | activity coefficient (313.15 K) | Structure (SMILES)
1.33 ± 0.14 | 1.33 and 1.46 | 1.37 and 1.35 | c1ccccc1 [benzene] + CCCCCCCC[n+]1ccn(C)c1.COCCOCCOS(=O)(=O)[O-]
5.69 and 5.38 | 4.92 and 5.11 | 4.7 and 4.67 | C#CCCCCC [1-heptyne] + CCCCCCCC[n+]1ccn(C)c1.COCCOCCOS(=O)(=O)[O-]
0.37 and 0.44 | 0.38 ± 0.05 | 0.36 and 0.38 | CO [methanol] + CCCCCCCC[n+]1ccn(C)c1.COCCOCCOS(=O)(=O)[O-]
8.52 and 8.34 | 7.86 ± 0.83 | 6.83 and 6.79 | C1CCCCC1 [cyclohexane] + CCCCCCCC[n+]1ccn(C)c1.COCCOCCOS(=O)(=O)[O-]
14 ± 1.5 | 12.8 and 12.9 | 11.9 and 11.8 | CCCCCC [hexane] + CCCCCCCC[n+]1ccn(C)c1.COCCOCCOS(=O)(=O)[O-]
11.2 and 10.3 | – | 8.74 and 8.65 | C1CCCCCCC1 [cyclooctane] + CCCCCCCC[n+]1ccn(C)c1.COCCOCCOS(=O)(=O)[O-]
6.4 and 6.14 | 5.1 and 5.86 | 5.24 and 5.16 | C1CCCC1 [cyclopentane] + CCCCCCCC[n+]1ccn(C)c1.COCCOCCOS(=O)(=O)[O-]
13.7 and 14 | 13.1 and 13.2 | 12 and 11.4 | C=CCCCCCC [oct-1-ene] + CCCCCCCC[n+]1ccn(C)c1.COCCOCCOS(=O)(=O)[O-]
22.6 and 22.2 | 21.1 and 19.7 | 16.4 ± 1.7 | CCCCCCCC [octane] + CCCCCCCC[n+]1ccn(C)c1.COCCOCCOS(=O)(=O)[O-]
10.3 and 10.8 | 10.5 and 10.1 | 8.51 and 9.33 | C=CCCCCC [1-heptene] + CCCCCCCC[n+]1ccn(C)c1.COCCOCCOS(=O)(=O)[O-]
12.6 and 11.6 | 10.6 and 10.3 | 10 and 9.5 | CCCCC [pentane] + CCCCCCCC[n+]1ccn(C)c1.COCCOCCOS(=O)(=O)[O-]
9.65 and 10.1 | 9.02 and 8.83 | 7.53 and 7.45 | C1CCCCCC1 [cycloheptane] + CCCCCCCC[n+]1ccn(C)c1.COCCOCCOS(=O)(=O)[O-]
17.9 and 17.4 | 16.4 and 16 | 13.5 and 13.3 | CCCCCCC [heptane] + CCCCCCCC[n+]1ccn(C)c1.COCCOCCOS(=O)(=O)[O-]
8.61 and 8.47 | 8.14 and 8.33 | 7.47 and 7.74 | C=CCCCC [hex-1-ene] + CCCCCCCC[n+]1ccn(C)c1.COCCOCCOS(=O)(=O)[O-]

— the NIST ThermoML archive (doi:10.1016/j.jct.2005.07.003)
